Laboratory results as given in ChEMBL document CHEMBL1201862, “PubChem BioAssay data set” (2004).
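Compound exposure: 48 hours, 5 concentrations, 96-well plates. Here, GI50 denotes the concentration required for 50% inhibition of growth.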 Activity calls are given as the source filed them. Rule as the data show it: active = GI50 up to about 1.1 µM and inactive = higher.

Columns and labels:
Assay in all cases: NCI tumour cell line growth inhibition, 48 h
[1] = tested on: A549
[2] = tested on: NCI-H23
[3] = tested on: HCC 2998
[4] = tested on: SF-268
[5] = tested on: UO-31
[6] = tested on: MDA-N
[7] = tested on: KM12
[8] = tested on: NCI-H522
[9] = tested on: CAKI-1
[10] = tested on: T47D
[11] = tested on: CCRF-CEM
[12] = tested on: SF-295
[13] = tested on: MDA-MB-231
[14] = tested on: U-251
[15] = tested on: HCT-116
[16] = tested on: NCI-H226
[17] = tested on: TK-10
[18] = tested on: 786-0
[19] = tested on: SK-MEL-5
[20] = tested on: Malme-3M
[21] = tested on: UACC-62
[22] = tested on: NCI-H460
[23] = tested on: OVCAR-5
[24] = tested on: MOLT-4
[25] = tested on: OVCAR-4
[26] = tested on: K562
[27] = tested on: HOP-62
[28] = tested on: SK-MEL-2
[29] = tested on: MDA-MB-435
[30] = tested on: Hs-578T
[31] = tested on: SNB-75
[32] = tested on: PC-3
[33] = tested on: IGROV-1
[34] = tested on: OVCAR-3
[35] = tested on: SN12C
[36] = tested on: DU-145
[37] = tested on: COLO 205
[38] = tested on: SK-MEL-28
[39] = tested on: UACC-257
[40] = tested on: ACHN
[41] = tested on: NCI/ADR-RES
[42] = tested on: HL-60
[43] = tested on: RPMI-8226
[44] = tested on: SW-620
[45] = tested on: SNB-19
[46] = tested on: MCF7
[47] = tested on: A498
[48] = tested on: M14
[49] = tested on: LOX IMVI
[50] = tested on: EKVX
[51] = tested on: HCT-15
[52] = tested on: SR
[53] = tested on: OVCAR-8
[54] = tested on: RXF 393
[55] = tested on: BT-549
[56] = tested on: SF-539
[57] = tested on: HOP-92
[58] = tested on: HT-29
[59] = tested on: SK-OV-3

CCOC(=O)c1ccc(C(=O)n2ccnc2)[nH]1
GI50 [1]: > 100 µM (inactive) | GI50 [2]: > 100 µM (inactive) | GI50 [3]: > 100 µM (inactive) | GI50 [4]: > 100 µM (inactive) | GI50 [5]: > 100 µM (inactive) | GI50 [6]: > 100 µM (inactive) | GI50 [7]: > 100 µM (inactive) | GI50 [8]: > 100 µM (inactive) | GI50 [9]: > 100 µM (inactive) | GI50 [10]: > 100 µM (inactive) | GI50 [11]: > 100 µM (inactive) | GI50 [12]: > 100 µM (inactive) | GI50 [13]: > 100 µM (inactive) | GI50 [14]: > 100 µM (inactive) | GI50 [15]: > 100 µM (inactive) | GI50 [16]: > 100 µM (inactive) | GI50 [17]: > 100 µM (inactive) | GI50 [18]: > 100 µM (inactive) | GI50 [19]: > 100 µM (inactive) | GI50 [20]: > 100 µM (inactive) | GI50 [21]: > 100 µM (inactive) | GI50 [22]: > 100 µM (inactive) | GI50 [23]: > 100 µM (inactive) | GI50 [24]: > 100 µM (inactive) | GI50 [25]: 84.3 µM (inactive) | GI50 [26]: > 100 µM (inactive) | GI50 [27]: > 100 µM (inactive) | GI50 [28]: > 100 µM (inactive) | GI50 [29]: > 100 µM (inactive) | GI50 [30]: > 100 µM (inactive) | GI50 [31]: 63.5 µM (inactive) | GI50 [32]: > 100 µM (inactive) | GI50 [33]: > 100 µM (inactive) | GI50 [34]: > 100 µM (inactive) | GI50 [35]: > 100 µM (inactive) | GI50 [36]: > 100 µM (inactive) | GI50 [37]: > 100 µM (inactive) | GI50 [38]: > 100 µM (inactive) | GI50 [39]: > 100 µM (inactive) | GI50 [40]: > 100 µM (inactive) | GI50 [41]: > 100 µM (inactive) | GI50 [42]: > 100 µM (inactive) | GI50 [43]: > 100 µM (inactive) | GI50 [44]: > 100 µM (inactive) | GI50 [45]: > 100 µM (inactive) | GI50 [46]: > 100 µM (inactive) | GI50 [47]: > 100 µM (inactive) | GI50 [48]: > 100 µM (inactive) | GI50 [49]: > 100 µM (inactive) | GI50 [50]: > 100 µM (inactive) | GI50 [51]: > 100 µM | GI50 [52]: > 100 µM (inactive) | GI50 [53]: > 100 µM (inactive) | GI50 [54]: 85.7 µM (inactive) | GI50 [55]: > 100 µM (inactive)

O=C(CC(C(=O)c1cccs1)c1ccc2c(c1)OCO2)c1ccccc1 (stereo unspecified)
GI50 [1]: > 100 µM (inactive) | GI50 [2]: > 100 µM (inactive) | GI50 [3]: > 100 µM (inactive) | GI50 [4]: > 100 µM (inactive) | GI50 [5]: > 100 µM (inactive) | GI50 [6]: > 100 µM (inactive) | GI50 [7]: > 100 µM (inactive) | GI50 [56]: > 100 µM (inactive) | GI50 [8]: > 100 µM (inactive) | GI50 [9]: > 100 µM (inactive) | GI50 [10]: 52.7 µM (inactive) | GI50 [12]: > 100 µM (inactive) | GI50 [13]: > 100 µM (inactive) | GI50 [14]: > 100 µM (inactive) | GI50 [15]: 50.5 µM (inactive) | GI50 [16]: > 100 µM (inactive) | GI50 [17]: 19.6 µM (inactive) | GI50 [18]: > 100 µM (inactive) | GI50 [19]: > 100 µM (inactive) | GI50 [20]: > 100 µM (inactive) | GI50 [21]: > 100 µM (inactive) | GI50 [22]: 46.7 µM (inactive) | GI50 [25]: > 100 µM (inactive) | GI50 [27]: > 100 µM (inactive) | GI50 [28]: > 100 µM (inactive) | GI50 [29]: 80.4 µM (inactive) | GI50 [57]: > 100 µM (inactive) | GI50 [30]: > 100 µM (inactive) | GI50 [31]: > 100 µM (inactive) | GI50 [32]: > 100 µM (inactive) | GI50 [33]: > 100 µM (inactive) | GI50 [34]: > 100 µM (inactive) | GI50 [35]: > 100 µM (inactive) | GI50 [36]: > 100 µM (inactive) | GI50 [37]: > 100 µM (inactive) | GI50 [38]: > 100 µM (inactive) | GI50 [39]: > 100 µM (inactive) | GI50 [58]: > 100 µM (inactive) | GI50 [40]: > 100 µM (inactive) | GI50 [41]: > 100 µM (inactive) | GI50 [42]: 58.9 µM (inactive) | GI50 [43]: > 100 µM (inactive) | GI50 [44]: > 100 µM (inactive) | GI50 [45]: > 100 µM (inactive) | GI50 [46]: > 100 µM (inactive) | GI50 [47]: > 100 µM (inactive) | GI50 [48]: 73.8 µM (inactive) | GI50 [59]: > 100 µM (inactive) | GI50 [49]: > 100 µM (inactive) | GI50 [51]: > 100 µM | GI50 [52]: 70.1 µM (inactive) | GI50 [53]: > 100 µM (inactive) | GI50 [54]: > 100 µM (inactive) | GI50 [55]: > 100 µM (inactive)

CCCCCCCCCCCC[C@@H](O)[C@H]1CC[C@H]([C@H](O)CC[C@H](O)[C@@H]2CC[C@@H](CCCCCCCC3=C[C@H](C)OC3=O)O2)O1
GI50 [1]: > 50 µM (inactive) | GI50 [2]: > 18.1 µM (inactive) | GI50 [3]: > 50 µM (inactive) | GI50 [4]: > 50 µM (inactive) | GI50 [5]: > 50 µM (inactive) | GI50 [6]: 6.47 µM (inactive) | GI50 [7]: > 50 µM (inactive) | GI50 [56]: > 50 µM (inactive) | GI50 [8]: 46.8 µM (inactive) | GI50 [9]: > 50 µM (inactive) | GI50 [10]: > 50 µM (inactive) | GI50 [11]: > 38.4 µM (inactive) | GI50 [12]: > 12.6 µM (inactive) | GI50 [13]: > 50 µM (inactive) | GI50 [14]: > 50 µM (inactive) | GI50 [15]: 5.58 µM (inactive) | GI50 [16]: > 50 µM (inactive) | GI50 [17]: > 50 µM (inactive) | GI50 [18]: > 50 µM (inactive) | GI50 [20]: > 50 µM (inactive) | GI50 [21]: 1.53 µM (inactive) | GI50 [22]: 2.54 µM (inactive) | GI50 [23]: > 50 µM (inactive) | GI50 [24]: > 15.2 µM (inactive) | GI50 [25]: > 50 µM (inactive) | GI50 [27]: > 50 µM (inactive) | GI50 [28]: > 50 µM (inactive) | GI50 [29]: > 50 µM (inactive) | GI50 [57]: > 50 µM (inactive) | GI50 [30]: 3.94 µM (inactive) | GI50 [31]: > 50 µM (inactive) | GI50 [32]: > 50 µM (inactive) | GI50 [33]: > 50 µM (inactive) | GI50 [34]: > 50 µM (inactive) | GI50 [35]: 3.99 µM (inactive) | GI50 [36]: 7.55 µM (inactive) | GI50 [37]: > 50 µM (inactive) | GI50 [38]: > 50 µM (inactive) | GI50 [39]: > 14.9 µM (inactive) | GI50 [58]: > 50 µM (inactive) | GI50 [40]: > 50 µM (inactive) | GI50 [41]: > 50 µM (inactive) | GI50 [42]: 1.74 µM (inactive) | GI50 [43]: > 37.2 µM (inactive) | GI50 [44]: > 50 µM (inactive) | GI50 [45]: > 50 µM (inactive) | GI50 [46]: > 50 µM (inactive) | GI50 [47]: > 50 µM (inactive) | GI50 [48]: > 50 µM (inactive) | GI50 [59]: > 50 µM (inactive) | GI50 [49]: > 27.2 µM (inactive) | GI50 [50]: > 50 µM (inactive) | GI50 [51]: > 50 µM | GI50 [52]: 1.27 µM (inactive) | GI50 [53]: > 50 µM (inactive) | GI50 [54]: > 50 µM (inactive) | GI50 [55]: > 50 µM (inactive)
